The melting point is the temperature of the solid-liquid transition.

The results in this text go back to a melting point compilation (Tetko et al.; mined from patent text by program, amines drawn as free bases though some values may be those of a salt).

`Cc1cc(C)n(C(=O)C(C)NS(=O)(=O)c2ccc(Cl)cc2)n1` (configuration not stated) came in with a melting point of 150 °C. The molecule `Cn1nc(-c2c(Cl)cccc2Cl)nc1-c1ccc(Br)s1` came in with a melting point of 130 to 132 °C.

`CN1CCC(C)(O)c2cccc(CSc3nc4ccccc4[nH]3)c21` (configuration not stated) returned a melting point of 156 to 157 °C. The same measure for `C=C1OC(c2ccc(Cl)cc2)=NC1(C)CC` (configuration not stated): 55 to 57 °C; for `O=C(Cc1ccc2[nH]cc(CCN3C(=O)c4ccccc4C3=O)c2c1)N1CCOCC1`: 140 to 141 °C. Take `Cc1ccc(C(C)C)c(-n2cc(-c3ccccc3)c(C)c2Cl)c1`: the melting point turned out to be 103 °C.

The molecule `COc1cccc2c1nc(C(F)F)n2-c1nc(N2CCOCC2)nc(N2CCC(NC(=O)CCl)CC2)n1` came in with a melting point of 252 to 254 °C. Then `CC(=O)C1C(=O)N(C(=O)Nc2ccc(F)cc2)c2ccccc21` (configuration not stated), with 181 to 182 °C; and `c1ccc(CN2CCN(Cc3ccccc3)C(CCc3ccncc3)C2)cc1` (configuration not stated), with 96 to 98 °C; and `Clc1cc(CCc2ccccn2)c2oc(-c3cnc[nH]3)nc2c1`, with 202 to 209 °C. Turning to `COc1cc2c(=O)[nH]c3c(c2cc1OC)c1ccccc1n3C`, the melting point is more than 310 °C. In turn, `NCC1Cc2cc(F)cc(-c3cc(Cl)ccc3Cl)c2O1` (configuration not stated) showed a melting point of 165 to 166 °C. As to `Cc1nnc2n1-c1ccc([N+](=O)[O-])cc1C(c1ccccc1Cl)=NC2(C)C`, the melting point is 283 °C.

In turn, `CCN1CCCc2cc(C=C3SC(=O)NC3=O)ccc21` had a melting point of 238 to 241 °C.

Molecule `Cc1cccc(C)c1N1CC(C)N(c2c(C)cccc2C)C1=NCC(=O)O` (configuration not stated) gave a melting point of 307 to 310 °C. Molecule `CCc1ccc(S(N)(=O)=O)cc1` gave a melting point of 104 to 108 °C.

In turn, `CSC1C(O)C(CO)OC1n1ccc(N)nc1=O` (configuration not stated) registered a melting point of 201 °C. For the molecule `CC1(C)CCC(C)(C)c2cc(CC#Cc3ccc(C(=O)N4CCOCC4)cc3)ccc21`, the melting point fell in the range of 98 to 99 °C.

In turn, `CCCc1c(OCCCS(=O)c2nc3ccc(C(=O)O)cc3[nH]2)ccc(C(C)=O)c1O` (configuration not stated) had a melting point of 173 to 175 °C. The same measure for `c1ccc2c(Cn3ccnc3)noc2c1`: 52 to 55 °C. Take `CN(CCOc1ccc(Cn2cc(CCC(=O)O)c(-c3ccccc3)n2)cc1)c1ccccn1`: the melting point lay in the range of 110 to 111 °C. Take `NC(=O)c1sc2nccc(NCCCc3ccccc3)c2c1N`: the melting point fell in the range of 232 to 234 °C. Take `OC[C@H](F)[C@H](OCc1ccccc1)[C@H](OCc1ccccc1)[C@@H](O)C(F)(F)F`: the melting point is 64 to 65 °C. The same measure for `CC(=O)Nc1cc([C@H](O)CN[C@H](C)Cc2ccc(O)cc2)ccc1O`: 97 to 100 °C; for `COC(=O)C(NC(=O)c1ccc(Cl)cc1)C(=O)OC`: 146 to 148 °C; for `COC(=O)c1cccc2c(-c3ccc(O)cc3)n(C(C)C)nc12`: 195 to 196 °C. The same measure for `CCCOc1ccc2c(c1)[C@H](c1ccc(OC)cc1-c1ccccc1)[C@@H](C(=O)O)[C@@H]2c1ccc2c(c1)OCO2` (racemic): 199 to 200 °C; for `O=C(O)C1CCN(c2ccc3nc4[nH]c(=O)[nH]c4cc3c2)CC1`: more than 310 °C. The same measure for `OCCCC(O)c1ccccc1` (configuration not stated): 63 to 68 °C; for `CCc1cccc(C)c1CNc1cc(OC)nc(NC)c1[N+](=O)[O-]`: 147 to 149 °C. Regarding `O=C1c2ccccc2C(=O)N1CC1CCc2cccnc2O1` (configuration not stated), the melting point was 152 to 158 °C. Take `O=C(O)C1CCC2C(=O)N(c3ccccc3)C(=S)N12` (configuration not stated): the melting point is 230 °C. As to `COc1ccc(C(=O)Nc2c(C)c(C)c3c(c2C)C(c2ccc(F)cc2)C(C)(C)O3)cc1` (configuration not stated), the melting point was 191 to 194 °C. In turn, `COc1ccccc1[C@H](c1cccc2ccccc12)[C@@](C)(C#N)C(=O)N1CCC(c2cccc(C(F)(F)F)c2)CC1` displayed a melting point of 123 to 127 °C. The same measure for `Cc1noc(NS(=O)(=O)c2ccc(S(=O)(=O)c3ccccc3)s2)c1Br`: 139 to 142 °C; for `Nc1cc(-n2cc(C(=O)O)c(=O)c3cc(F)c(N4CC(N)C4)c(Cl)c32)cnc1Cl`: 280 °C; for `Cn1nc(-c2cc(S)c(Cl)cc2F)c(Cl)c1C(F)(F)F`: 56 to 58 °C.

As to `C#CCn1c(Sc2ccccc2)c(CC)c(=O)[nH]c1=O`, the melting point was determined as 132 °C. As to `COCCOc1ccc(CCCOc2cc(CCC(=O)O)n(-c3ccccc3)n2)c(Oc2ncc(C(F)(F)F)cc2Cl)c1`, the melting point lay within 128 to 129 °C. As to `Cc1c(NC(=O)c2ccc(OCC3CCOC3)cc2)ccc2cc(CNCC(C)C)cnc12` (configuration not stated), the melting point stood at 132 °C. Then `CN(C)C(=O)n1cc(C(=O)C2CSC(c3cccnc3)N2)c2ccc(Oc3ccc(F)cc3)cc21` (configuration not stated), with 72 to 75 °C; and `Cc1c(Br)c(=O)n(-c2cc(C(=O)OC(C)C)c(Cl)cc2F)c(=O)n1C`, with 127 to 129 °C. The same measure for `Cc1cccc(-c2ncc(NC(=O)OCc3ccccc3)c(=O)n2CC(=O)NC(Cc2ccccc2)C(=O)C(F)(F)F)c1` (configuration not stated): 128 to 132 °C. In turn, `O=C1NC(=O)c2c1c(-c1c(Cl)cccc1Cl)cc1c2c2cc(O)ccc2n1CCO` yielded a melting point of 254 to 257 °C.

With `O=C(O)Cc1ccc2c(c1)C(=O)Cc1ccccc1C2`, the melting point fell in the range of 171 to 173 °C. Then `Cc1c(-c2ccccc2)oc2c(C(=O)NCCO)cccc2c1=O`, with 206 to 208 °C. `O=C1c2ccccc2-c2c1c1ccc([N+](=O)[O-])cc1c(=O)n2CCCNS(=O)(=O)c1ccccc1` yielded a melting point of 258 to 259 °C. Then `N#CC(O)c1c(Cl)cccc1Cl` (configuration not stated), with 90 °C; and `O=C1CCC(N2Cc3c(OCc4ccc(CN5CCS(=O)CC5)cc4)cccc3C2=O)C(=O)N1` (configuration not stated), with 170 to 172 °C.

Regarding `O=C(O)c1ccc(CNCc2cc(Br)ccc2OCc2ccccc2)cc1`, the melting point amounted to 209 °C. For the molecule `CC1=CC(C)(C)Nc2ccc3c(c21)C(=C1SCCCS1)Oc1ccc(F)cc1-3`, the melting point lay in the range of 120 to 122 °C. For the molecule `CC(C)(C)c1cc(C(=O)NCc2ccc(N)cc2)cc(C(C)(C)C)c1O`, the melting point was in the range of 188 to 189 °C. `CCOC(=O)c1cc(-c2ncc(Cl)cc2F)nn1C` gave a melting point of 117 to 118 °C. For `CC(C)Oc1ccccc1C1(CC(=O)O)C(=O)Nc2ccc(Cl)cc21` (configuration not stated), the melting point lay in the range of 146 to 148 °C. Then `N[C@@H]1CCN(c2ccc3c(NC(=O)CC4CCCCC4)c(Cl)ccc3n2)C1`, with 201 to 206 °C; and `Clc1ccc(-c2ccco2)nn1`, with 103 to 104 °C; and `Cc1nn(-c2ccsc2)c(=O)cc1-c1ccc(OC2CCN(C3CCC3)CC2)cc1`, with 277 to 279 °C.

Molecule `O=C(O)C=CC(=O)NCCCCCCCCCCCCCCCCCCCC(=O)O` registered a melting point of 146 to 148 °C. The same measure for `CC(=O)c1ccc(NCc2ccc3ccc4nc(C)[nH]c(=O)c4c3c2)cc1`: more than 235 °C; for `COc1c(-c2ccc3cc(NS(C)(=O)=O)ccc3c2)cc(-n2ccc(=O)[nH]c2=O)cc1C(C)(C)C(=O)O`: more than 300 °C. As for `CC(=O)OC1c2ccccc2Oc2ccccc21`, the melting point was in the range of 109 to 112 °C. Molecule `CCCCCCCCCCCCCCCCCCCC(=O)Nc1ccc(NC(=O)NS(=O)(=O)c2ccc3ccccc3c2)cc1` yielded a melting point of 179 °C. Then `O=C(O)CCCc1ccc(NS(=O)(=O)c2cccc(Cl)c2)cn1`, with 141 to 142 °C. In turn, `CCC(CO)NCC(O)COc1ccccc1C#N` (configuration not stated) had a melting point of 106 to 108 °C.

As for `CCn1cc(C(=O)O)c(=O)c2ccc(N)cc21`, the melting point was 304 to 307 °C. Regarding `CCCCCCCCc1c(C)nc2cc(C)nn2c1N`, the melting point was 169 °C. Then `COC(=O)c1ccc(CNC(=O)[C@@H]2Cc3ccccc3N2S(=O)(=O)c2ccc(I)cc2)cc1`, with 80 to 85 °C; and `O=C(Nc1ccc2nc(CN3CCN=C3Cc3ccccc3)ccc2c1)c1ccc(-c2ccc(F)cc2)cc1`, with 200 to 202 °C; and `O=C(O)c1cc(C(=O)O)cc(N2C(=O)C=CC2=O)c1`, with more than 300 °C.

As to `CN(C)C(=O)CCc1c[nH]c(-c2cccs2)c1`, the melting point was in the range of 107 to 109 °C. The molecule `NCCC(=O)N(N)S(=O)(=O)c1ccccc1` came in with a melting point of 135 to 137 °C. As for `CC[Si](CC)(CC)c1ccccc1S(N)(=O)=O`, the melting point was 85.6 °C. Then `FC(F)(F)c1ccn(-c2ccnc(Cl)n2)n1`, with 111 to 112 °C.

`CCCc1nc2c(N)nc3cc(CCc4cccnc4)ccc3c2n1NC(C)C` came in with a melting point of 100 to 103 °C.

The molecule `CC(C)(C)OC(=O)C=Cc1ccc2ccccc2c1` returned a melting point of 74 to 75 °C. In turn, `CCOC(=O)C1=CNc2ccnn2C1` showed a melting point of 198 to 200 °C. As to `CCOC(=O)c1cnc2c3c(ccc2c1Cl)C(=O)C(C(C)=O)C=N3` (configuration not stated), the melting point was in the range of 288 to 290 °C. The same measure for `O=C1C2CCCC(C(=O)N2Cc2ccccc2)N1Cc1ccccc1`: 201 to 202 °C; for `CCOC(=O)C(=CNC1CC1)C(=O)c1cc(Cl)c(F)c(Cl)c1F`: 71 to 74 °C. Then `Cc1c(O[Si](C)(C)C(C)(C)C)cc(O[Si](C)(C)C(C)(C)C)cc1C(=O)O[Si](C)(C)C(C)(C)C`, with 64 °C; and `COC(=O)c1ccccc1NC(=O)CNc1ccccc1`, with 140 to 142 °C.

In the case of `N#Cc1ccc2[nH]cc(C=C[N+](=O)[O-])c2c1`, the melting point is 217 to 220 °C. Molecule `CC(C)CC(C=O)NC(=O)C(Cc1c[nH]cn1)NC(=O)C(CC=Cc1ccccc1)Cc1cccc2ccccc12` (configuration not stated) registered a melting point of 92 to 96 °C. The same measure for `COc1ccc(NN=C(Sc2ccc(C(C)(C)C)cc2)C(C)=O)cc1`: 111 to 113 °C; for `CC(=O)N(CC=C=CC=c1c(C)c2c(n(-c3ccccc3)c1=O)=NN(c1ccccc1)C2=O)c1ccccc1`: more than 300 °C. The molecule `CC(C)Nc1nc(Br)cnc1OCC(O)CBr` (configuration not stated) returned a melting point of 108 to 109 °C. For `Cn1c(C(F)(F)F)cc(=O)n(-c2ccc(Cl)c(C3OCCCO3)c2)c1=O`, the melting point was 87 to 92 °C.
